Experiment [1] has as its system Mycobacterium tuberculosis. Put plainly: Antitubercular activity against Mycobacterium tuberculosis H37Rv after 5 days by microplate Alamar blue assay. In kind it is functional. As to conditions: for MIC: Mycobacterium tuberculosis, H37Rv, 120 h.
The subject of experiment [2] is Mycobacterium tuberculosis. Put plainly: Antitubercular activity against Mycobacterium tuberculosis after 5 days by microplate Alamar blue assay. The following applies: 120 h. Format: functional.

Converted amounts (≈) assume the structure as drawn.

Take `COc1ccc(OCc2cn(Cc3cc(=O)oc4cc(OC)ccc34)nn2)cc1`: in experiment [1], the “-logMIC” value was determined as 4.3 and the MIC turned out to be 50 µg/mL (≈ 127 µM).
With `COc1ccc(OCc2cn(Cc3cc(=O)oc4ccc(OC)cc34)nn2)cc1`, in experiment [1], the “-logMIC” value was 4.3 and it took 50 µg/mL (≈ 127 µM) to inhibit growth (MIC).
For `CN[C@@H]1[C@H](O[C@H]2[C@H](O[C@H]3[C@H](O)[C@@H](O)[C@H](N=C(N)N)[C@@H](O)[C@@H]3N=C(N)N)O[C@@H](C)[C@]2(O)C=O)O[C@@H](CO)[C@H](O)[C@H]1O` [STREPTOMYCIN], the MIC in experiment [1] is 6.25 µg/mL (≈ 10.7 µM).
Turning to `Cc1ccc2c(Cn3cc(COc4ccc(OCc5cn(Cc6cc(=O)oc7c(C)c(C)ccc67)nn5)cc4)nn3)cc(=O)oc2c1C`, in experiment [1], the “-logMIC” value turned out to be 5.5 and the MIC was determined as 3.12 µg/mL (≈ 4.85 µM).
In experiment [1], `NC(=O)c1cnccn1` [PYRAZINAMIDE] came in with an MIC of 3.12 µg/mL (≈ 25.4 µM).
Consider `COc1ccc2oc(=O)cc(Cn3cc(COc4ccc(Br)cc4)nn3)c2c1`, for which, in experiment [1], the “-logMIC” value came out at 4.3 and the MIC was found to be 50 µg/mL (≈ 113 µM).
The like results for `COc1ccc(OCc2cn(Cc3cc(=O)oc4ccc(Br)cc34)nn2)cc1` were, in that order, 4.3 and 50 µg/mL (≈ 113 µM).
In the case of `COc1ccc(OCc2cn(Cc3cc(=O)oc4ccc5ccccc5c34)nn2)cc1`, in experiment [1], the “-logMIC” value is recorded as 4.3 and the MIC was determined as 50 µg/mL (≈ 121 µM).
In the case of `COc1ccc(OCc2cn(Cc3cc(=O)oc4cc(C)ccc34)nn2)cc1`, in experiment [1], the “-logMIC” value is recorded as 4.3 and it took 50 µg/mL (≈ 132 µM) to inhibit growth (MIC).
For `Cc1ccc2oc(=O)cc(Cn3cc(COc4ccc(Br)cc4)nn3)c2c1`, in that order: 4.3 and 50 µg/mL (≈ 117 µM).
The like results for `COc1ccc2c(Cn3cc(COc4ccc(OCc5cn(Cc6cc(=O)oc7cc(OC)ccc67)nn5)cc4)nn3)cc(=O)oc2c1` were, in that order, 5.2 and 6.25 µg/mL (≈ 9.64 µM).
In the case of `Cc1cc(C)c2c(Cn3cc(COc4ccc(OCc5cn(Cc6cc(=O)oc7cc(C)cc(C)c67)nn5)cc4)nn3)cc(=O)oc2c1`, in experiment [1], the “-logMIC” value was 5.2 and the minimal inhibitory concentration (MIC) worked out at 6.25 µg/mL (≈ 9.69 µM).
For `Cc1ccc2oc(=O)cc(Cn3cc(COc4ccc(OCc5cn(Cc6cc(=O)oc7ccc(C)cc67)nn5)cc4)nn3)c2c1`, in experiment [1], the “-logMIC” value was 6.69 and the lowest concentration to inhibit growth (MIC) was 0.2 µg/mL (≈ 0.324 µM).
Take `O=c1cc(Cn2cc(COc3ccc(Br)cc3)nn2)c2c(ccc3ccccc32)o1`: in experiment [1], the “-logMIC” value was found to be 4 and the MIC turned out to be 50 µg/mL (≈ 108 µM).
As to `O=c1cc(Cn2cc(COc3ccc(Cl)cc3)nn2)c2cc(Br)ccc2o1`, in experiment [1], the “-logMIC” value amounted to 4.3 and the MIC amounted to 50 µg/mL (≈ 112 µM).
For the compound `Cc1cc(=O)oc2cc(OCc3cn(Cc4cc(=O)oc5ccc(Cl)cc45)nn3)ccc12`, in experiment [2], the minimal inhibitory concentration (MIC) came out at 6.25 µg/mL (≈ 13.9 µM).
On to `COc1ccc(OCc2cn(Cc3cc(=O)oc4cc(Cl)ccc34)nn2)cc1`, for which, in experiment [1], the “-logMIC” value stood at 4.3 and the MIC was found to be 50 µg/mL (≈ 126 µM).
On to `COc1ccc(OCc2cn(Cc3cc(=O)oc4cc(C)cc(C)c34)nn2)cc1`, for which, in experiment [1], the “-logMIC” value is 4.3 and inhibition of growth (MIC) required 50 µg/mL (≈ 128 µM).
The like results for `COc1ccc(OCc2cn(Cc3cc(=O)oc4ccc(C)cc34)nn2)cc1` were, in that order, 4.3 and 50 µg/mL (≈ 132 µM).
The like results for `O=c1cc(Cn2cc(COc3ccc(OCc4cn(Cc5cc(=O)oc6c5ccc5ccccc56)nn4)cc3)nn2)c2ccc3ccccc3c2o1` were, in that order, 4.93 and 12.5 µg/mL (≈ 18.2 µM).
For `O=c1cc(Cn2cc(COc3ccc(Br)cc3)nn2)c2cc(Br)ccc2o1`, in that order: 4.3 and 50 µg/mL (≈ 102 µM).
Consider `O=c1cc(Cn2cc(COc3ccc(Br)cc3)nn2)c2ccc(Cl)cc2o1`, for which, in experiment [1], the “-logMIC” value turned out to be 4.3 and the MIC is 50 µg/mL (≈ 112 µM).
The like results for `Cc1ccc2c(Cn3cc(COc4ccc(Cl)cc4)nn3)cc(=O)oc2c1` were, in that order, 4.3 and 50 µg/mL (≈ 131 µM).
For `O=c1cc(Cn2cc(COc3ccc(Cl)cc3)nn2)c2ccc(Cl)cc2o1`, in that order: 4.3 and 50 µg/mL (≈ 124 µM).
For the compound `Cc1ccc2c(Cn3cc(COc4ccc(OCc5cn(Cc6cc(=O)oc7cc(C)ccc67)nn5)cc4)nn3)cc(=O)oc2c1`, in experiment [1], the “-logMIC” value turned out to be 5.2 and the lowest concentration to inhibit growth (MIC) was 6.25 µg/mL (≈ 10.1 µM).
For `COc1ccc(OCc2cn(Cc3cc(=O)oc4c3ccc3ccccc34)nn2)cc1`, in that order: 4.3 and 50 µg/mL (≈ 121 µM).
The like results for `Cc1ccc2c(Cn3cc(COc4ccc(Br)cc4)nn3)cc(=O)oc2c1` were, in that order, 4.3 and 50 µg/mL (≈ 117 µM).
For `O=c1cc(Cn2cc(COc3ccc(Cl)cc3)nn2)c2c(ccc3ccccc32)o1`, in that order: 4.3 and 50 µg/mL (≈ 120 µM).
As for `Cc1ccc2oc(=O)cc(Cn3cc(COc4ccc(Cl)cc4)nn3)c2c1`, in experiment [1], the “-logMIC” value is recorded as 4.3 and the MIC is 50 µg/mL (≈ 131 µM).
For `O=C(O)c1cn(C2CC2)c2cc(N3CCNCC3)c(F)cc2c1=O` [CIPROFLOXACIN], in experiment [1], the MIC was 3.12 µg/mL (≈ 9.43 µM).
As to `O=c1cc(Cn2cc(COc3ccc(Br)cc3)nn2)c2ccc3ccccc3c2o1`, in experiment [1], the “-logMIC” value came out at 4 and the MIC amounted to 100 µg/mL (≈ 216 µM).

These data come from ChEMBL document CHEMBL3734750, “A click chemistry approach for the synthesis of mono and bis aryloxy linked coumarinyl triazoles as anti-tubercular agents” (2015).
